In US10859504B2, “Degradable cationic surfactants and use thereof in enhancing chemiluminescence” (Siemens Healthcare Diagnostics Inc., priority 2013, dated 2020):

Experiments:
[1] = Chemiluminescence measurement of anti-TSH antibody conjugate of acridinium ester 3a with cationic surfactants; conditions: for Observed enhancement (fold) of chemiluminescence: no surfactant control = 1; for Observed acceleration of emission kinetics (time to >90% emission): without surfactant 57.5 seconds; for accelerated emission kinetics: as shown in Table 1b, from 57.5 seconds without surfactant
Experimental: (§1) To study the impact of degradable cationic surfactants on acridinium ester chemiluminescence, two exemplary cationic surfactants containing cleavable linkages (FIG. 2A) were selected. The synthetic schemes for the two surfactants are illustrated in FIGS. 3-4 and described in Examples 1 and 2 above. Both surfactants were dissolved in Reagent 1 (0.1 M nitric acid containing 0.5% hydrogen peroxide) at five times their reported CMCs in water. CTAC dissolved in Reagent 2 (0.25 M NaOH) was used as the control surfactant. The two carbonate and amide cationic surfactants (FIG. 2A) were dissolved in Reagent 1 to preserve stability, especially during long term storage (Stjerndahl and Holmberg, J. Colloid and Interface Sci., 2005, 291, 570-576). Three acridinium esters (FIG. 2B, compounds 3a, 3b and 3c) were used to make protein conjugates of an anti-TSH antibody (TS=thyroid stimulating hormone) as described in the literature (Natrajan et al, Org. Biomol. Chem., 2011, 9, 5092-5103; Natrajan et al, Org. Biomol. Chem., 2012, 10, 3432-3447). The conjugates contained approximately 5 labels. The conjugates were stored at 4° C. in buffer and chemiluminescence from each conjugate was measured in the absence of surfactant and in the presence of CTAC as well as cationic surfactants 1 and 2 (Tables 1-3, FIGS. 5-7). The ability of each surfactant to (a) increase total light output and (b) accelerate emission kinetics was evaluated over a period of 80 days.
(§2) Chemiluminescence of anti-TSH antibody conjugates of acridinium esters 3a, 3b and 3c (FIG. 2B) was measured on an Autolumat LB953 Plus luininometer from Behold Technologies. The conjugates, ˜2 mg/mL containing approximately five labels, were serially diluted 10^5-fold for chemiluminescence measurements in an aqueous buffer of 10 mM disodium hydrogen phosphate, 0.15 M NaCl and 8 mM sodium azide and 0.015 mM bovine serum albumin (BSA), pH 8.0. A 0.010 mL volume of each diluted acridinium ester sample was dispensed into the bottom of a cuvette. Cuvettes were placed into the primed LB953 and the chemiluminescence reaction was initiated with the sequential addition of 0.3 mL of Reagent 1, a solution of 0.5% hydrogen peroxide in 0.1 M nitric acid followed by the addition of 0.3 mL of Reagent 2, a solution of 0.25 M sodium hydroxide. For measurements in the presence of CTAC, the surfactant (7 mM) was included in Reagent 2. For measurements in the presence of the cationic amide surfactant 1 or the cationic carbonate surfactant 2, each surfactant was dissolved in Reagent 1 at 3.2 mM (surfactant 1) and 2.15 mM (surfactant 2). Each chemiluminescence flash curve was measured in 240 intervals of 0.5 second (120 seconds total time). Each chemiluminescence reaction was carried out a minimum of three times, averaged and converted to a percentage of the chemiluminescence accumulated up to each time interval. The output from the luminometer instrument was expressed as R.L.U.s (Relative Light Units).

[2] = Chemiluminescence measurement of anti-TSH antibody conjugate of acridinium ester 3b with cationic surfactants; conditions: for Observed enhancement (fold) of chemiluminescence: no surfactant control = 1; for Observed acceleration of emission kinetics (time to >90% emission): without surfactant 49.5 seconds
Experimental: as §1, §2

[3] = Chemiluminescence measurement of anti-TSH antibody conjugate of acridinium ester 3c with cationic surfactants; conditions: for Observed enhancement (fold) of chemiluminescence: no surfactant control = 1; for Observed acceleration of emission kinetics (time to >90% emission): without surfactant 62.5 seconds
Experimental: as §1, §2

[4] = Stability of surfactants in Reagent 1 (0.5% peroxide in 0.1 M nitric acid) on storage; format: physicochemical; conditions: for stability in Reagent 1: 0.5% peroxide in 0.1 M nitric acid, 80 days at room temperature, little loss in ability to enhance chemiluminescence; for ability to accelerate light emission after storage: 80 days of storage at room temperature
Experimental: as §1
For example, for all three acridinium ester conjugates, in comparison to the no surfactant control which was assigned a relative light yield of one, total light yield was increased approximately 2.5-4-fold for 3a, 3-5-fold for 3b and 3-4.5-fold for 3c (Tables 1a, 2a and 3a) for CTAC as well as surfactants 1 and 2. […] Even at day 80, the fold of increased light emission using surfactant 2 remains to be about 80% (2.8/3.5) of CTAC. Similarly, the fold of increased light emission using Surfactant 1 is about 89% (3.1/3.5) on day 1, and 74% (2.6/3.5) on day 80 compared to CTAC.
Furthermore, both surfactants 1 and 2 were very effective in accelerating light emission from the acridinium ester antibody conjugates (Tables 1b, 2b and 3b, FIGS. 5-7). […] In the presence of CTAC or the two cationic surfactants 1 and 2, emission times were compressed to <3 seconds for the conjugates of all three acridinium ester labels.

Row | SMILES | Observed enhancement (fold) of chemiluminescence ([1]; Day 1) | Observed acceleration of emission kinetics (time to >90% emission) ([1]; Day 1) | Observed enhancement (fold) of chemiluminescence ([1]; Day 10) | Observed acceleration of emission kinetics (time to >90% emission) ([1]; Day 10) | Observed enhancement (fold) of chemiluminescence ([1]; Day 20) | Observed acceleration of emission kinetics (time to >90% emission) ([1]; Day 20) | Observed enhancement (fold) of chemiluminescence ([1]; Day 40) | Observed acceleration of emission kinetics (time to >90% emission) ([1]; Day 40) | Observed enhancement (fold) of chemiluminescence ([1]; Day 80) | Observed acceleration of emission kinetics (time to >90% emission) ([1]; Day 80) | accelerated emission kinetics [1] | fold of increased light emission compared to CTAC ([1]; day 80) | Observed enhancement (fold) of chemiluminescence ([2]; Day 1) | Observed acceleration of emission kinetics (time to >90% emission) ([2]; Day 1) | Observed enhancement (fold) of chemiluminescence ([2]; Day 10) | Observed acceleration of emission kinetics (time to >90% emission) ([2]; Day 10) | Observed enhancement (fold) of chemiluminescence ([2]; Day 20) | Observed acceleration of emission kinetics (time to >90% emission) ([2]; Day 20) | Observed enhancement (fold) of chemiluminescence ([2]; Day 40) | Observed acceleration of emission kinetics (time to >90% emission) ([2]; Day 40) | other results
1 | CCCCCCCCCCCCCCCC(=O)NCC[N+](C)(C)C [surfactant 1] | 3.1 fold | 1.0 s | 3.1 fold | 1.0 s | 3.4 fold | 1.0 s | 2.6 fold | 1.0 s | 2.6 fold | 1.0 s | 1.0 s | ~74% | 4.5 fold | 1.0 s | 4.4 fold | 0.5 s | 4.7 fold | 0.5 s | 3.4 fold | 0.5 s | fold of increased light emission compared to CTAC ([1]; day 1): about 89%; Observed enhancement (fold) of chemiluminescence ([2]; Day 80): 3.4 fold; Observed acceleration of emission kinetics (time to >90% emission) ([2]; Day 80): 0.5 s; Observed enhancement (fold) of chemiluminescence ([3]; Day 1): 3.8 fold; Observed acceleration of emission kinetics (time to >90% emission) ([3]; Day 1): 2.0 s; Observed enhancement (fold) of chemiluminescence ([3]; Day 10): 3.8 fold; Observed acceleration of emission kinetics (time to >90% emission) ([3]; Day 10): 2.0 s; Observed enhancement (fold) of chemiluminescence ([3]; Day 20): 4.1 fold; Observed acceleration of emission kinetics (time to >90% emission) ([3]; Day 20): 2.0 s; Observed enhancement (fold) of chemiluminescence ([3]; Day 40): 3.2 fold; Observed acceleration of emission kinetics (time to >90% emission) ([3]; Day 40): 2.0 s; Observed enhancement (fold) of chemiluminescence ([3]; Day 80): 3.0 fold; Observed acceleration of emission kinetics (time to >90% emission) ([3]; Day 80): 2.0 s; stability in Reagent 1 [4]: quite stable; ability to accelerate light emission after storage [4]: did not diminish
2 | CCCCCCCCCCCCOC(=O)OCCCC[N+](C)(C)C [surfactant 2] | 3.5 fold | 1.0 s | 3.6 fold | 1.0 s | 3.7 fold | 1.0 s | 3.2 fold | 1.0 s | 2.8 fold | 1.0 s | 1.0 s | about 80% | 5.0 fold | 0.5 s | 5.2 fold | 0.5 s | 5.2 fold | 0.5 s | 3.9 fold | 0.5 s | effectiveness in enhancing chemiluminescence relative to CTAC ([1]; within at least the first 10 days (Table 1a)): as effective as CTAC; Observed enhancement (fold) of chemiluminescence ([2]; Day 80): 4.1 fold; Observed acceleration of emission kinetics (time to >90% emission) ([2]; Day 80): 0.5 s; Observed enhancement (fold) of chemiluminescence ([3]; Day 1): 4.2 fold; Observed acceleration of emission kinetics (time to >90% emission) ([3]; Day 1): 1.0 s; Observed enhancement (fold) of chemiluminescence ([3]; Day 10): 4.2 fold; Observed acceleration of emission kinetics (time to >90% emission) ([3]; Day 10): 1.0 s; Observed enhancement (fold) of chemiluminescence ([3]; Day 20): 4.4 fold; Observed acceleration of emission kinetics (time to >90% emission) ([3]; Day 20): 1.5 s; Observed enhancement (fold) of chemiluminescence ([3]; Day 40): 3.7 fold; Observed acceleration of emission kinetics (time to >90% emission) ([3]; Day 40): 1.5 s; Observed enhancement (fold) of chemiluminescence ([3]; Day 80): 3.5 fold; Observed acceleration of emission kinetics (time to >90% emission) ([3]; Day 80): 1.5 s; stability in Reagent 1 [4]: quite stable; ability to accelerate light emission after storage [4]: did not diminish
